# Where a name gives a salt, the structure may show the parent alone.
# Legend:
# [1] = target: T1, recombinant human plasminogen activator inhibitor-1 (PAI-1) (Homo sapiens, UniProt P05121); assay: Primary Screen for the PAI-1 Inhibition; assay type: biochemical; conditions: for inhibition at 100 µM: 100 μM test compound, read-out: % Inhib. 100 μM; for inhibition at 25 µM: 25 μM test compound, read-out: % Inhib. 25 μM
# T1 construct: purchased Molecular Innovations, Royal Oak, Mich
# Procedure: Test compounds are dissolved in DMSO at a final concentration of 10 mM, then diluted 100× in physiologic buffer. The inhibitory assay is initiated by the addition of the test compound (1-100 μM final concentration, maximum DMSO concentration of 0.2%) in a pH 6.6 buffer containing 140 nM recombinant human plasminogen activator inhibitor-1 (PAI-1; Molecular Innovations, Royal Oak, Mich.). Following a 1 hour incubation at room temperature, 70 nM of recombinant human tissue plasminogen activator (tPA) is added, and the combination of the test compound, PAI-1 and tPA is incubated for an additional 30 minutes. Following the second incubation, Spectrozyme-tPA (American Diagnostica, Greenwich, Conn.), a chromogenic substrate for tPA, is added and absorbance read at 405 nm at 0 and 60 minutes. Relative PAI-1 inhibition is equal to the residual tPA activity in the presence of the test compound and PAI-1. Control treatments include the complete inhibition of tPA by PAI-1 at the molar ratio employed (2:1), and the absence of any effect of the test compound on tPA alone.
# [2] = target: human PAI-1 (Homo sapiens, UniProt P05121); assay: Assay for Determining IC50 of Inhibition of PAI-1 (Antibody Assay); assay type: biochemical; conditions: active PAI-1 bound to tPA-coated plate
# Procedure: This assay is based upon the non-SDS dissociable interaction between tPA and active PAI-1. Assay plates are initially coated with human tPA (10 μg/ml). The test compounds are dissolved in DMSO at 10 mM, then diluted with physiologic buffer (pH 7.5) to a final concentration of 1-50 μM. The test compounds are incubated with human PAI-1 (50 ng/ml) for 15 minutes at room temperature. The tPA-coated plate is washed with a solution of 0.05% Tween 20 and 0.1% BSA, then the plate is blocked with a solution of 3% BSA. An aliquot of the test compound/PAI-1 solution is then added to the tPA-coated plate, incubated at room temperature for 1 hour, and washed. Active PAI-1 bound to the plate is assessed by adding an aliquot of a 1:1000 dilution of the 33B8 monoclonal antibody against human PAI-1, and incubating the plate at room temperature for 1 hour (Molecular Innovations, Royal Oak, Mich. The plate is again washed, and a solution of goat anti-mouse IgG-alkaline phosphatase conjugate is added at a 1:50,000 dilution in goat serum. The plate is incubated 30 minutes at room temperature, washed, and a solution of alkaline phosphatase substrate is added. The plate is incubated 45 minutes at room temperature, and color development is determined at OD405nm. The quantitation of active PAI-1 bound to tPA at varying concentrations of the test compound is used to determine the IC50. Results are analyzed using a logarithmic best-fit equation. The assay sensitivity is 5 ng/ml of human PAI-1 as determined from a standard curve ranging from 0-100 ng/ml.
# T1 sequence (P05121 24-402): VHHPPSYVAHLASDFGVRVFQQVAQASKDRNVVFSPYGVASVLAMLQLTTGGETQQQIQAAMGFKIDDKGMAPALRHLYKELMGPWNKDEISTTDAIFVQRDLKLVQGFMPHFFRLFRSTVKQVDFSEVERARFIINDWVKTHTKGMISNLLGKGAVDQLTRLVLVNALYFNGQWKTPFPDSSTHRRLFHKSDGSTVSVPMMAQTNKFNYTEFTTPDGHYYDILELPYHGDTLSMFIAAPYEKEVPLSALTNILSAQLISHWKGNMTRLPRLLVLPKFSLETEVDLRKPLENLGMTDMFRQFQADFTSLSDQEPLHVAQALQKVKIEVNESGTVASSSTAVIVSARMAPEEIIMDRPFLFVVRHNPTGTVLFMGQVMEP
# human PAI-1, sequence (P05121 24-402): as above
Structure (SMILES),melting point [°C],inhibition at 100 µM [1] [%],IC50 [2] [µM],inhibition at 25 µM [1] [%]
"CN(Cc1ccc2c(Br)c(OC(Cc3ccccc3)C(=O)O)ccc2c1)C(=O)c1cc(C(C)(C)C)cc(C(C)(C)C)c1 (centres unmarked) [Example 65, 2-(1-Bromo-6-{[(3,5-di-tert-butyl-benzoyl)-methyl-amino]-methyl}-naphthalen-2-yloxy)-3-phenyl-propionic acid]",,88,14.6,46
"Cc1c(C(=O)NCc2ccc3c(Br)c(OCc4nnn[nH]4)ccc3c2)oc2ccccc12 [Example 43, 3-Methyl-benzofuran-2-carboxylic acid [5-bromo-6-(1H-tetrazol-5-ylmethoxy)-naphthalen-2-ylmethyl]-amide]",212 to 215,71,,47
"CN(Cc1ccc2c(Br)c(OC(Cc3ccccc3)C(=O)O)ccc2c1)C(=O)c1oc2ccccc2c1CCc1ccccc1 (centres unmarked) [Example 46, 2-(1-Bromo-6-{[methyl-(3-phenethyl-benzofuran-2-carbonyl)-amino]-methyl}-naphthalen-2-yloxy)-3-phenyl-propionic acid]",87 to 90,88,,58
"CCCCc1c(C(=O)N(C)Cc2ccc3c(Br)c(OCc4nnn[nH]4)ccc3c2)oc2ccccc12 [Example 39, 3-Butyl-benzofuran-2-carboxylic acid [5-bromo-6-(1H-tetrazol-5-ylmethoxy)-naphthalen-2-ylmethyl]-methyl-amide]",180 to 183,69,,24
"Cc1c(C(=O)N(C)Cc2ccc3c(Br)c(OCc4nnn[nH]4)ccc3c2)oc2ccccc12 [Example 41, 3-Methyl-benzofuran-2-carboxylic acid [5-bromo-6-(1H-tetrazol-5-ylmethoxy)-naphthalen-2-ylmethyl]-methyl-amide]",164 to 166,91,,49
"CCCc1c(C(=O)NCc2ccc3c(Br)c(OCc4nnn[nH]4)ccc3c2)cnn1-c1ccccc1 [Example 22, 1-Phenyl-5-propyl-1H-pyrazole-4-carboxylic acid [5-bromo-6-(1H-tetrazol-5-ylmethoxy)-naphthalen-2-ylmethyl]-amide]",219 to 220,70,,12
"Cc1c(C(=O)NCc2ccc3c(Br)c(OC(Cc4ccccc4)C(=O)O)ccc3c2)oc2ccccc12 (centres unmarked) [Example 44, 2-(1-Bromo-6-{[(3-methyl-benzofuran-2-carbonyl)-amino]-methyl}-naphthalen-2-yloxy)-3-phenyl-propionic acid]",110 to 113,,,
"O=C(O)COc1ccc2cc(CNC(=O)C3(c4ccc(Cl)cc4)CCCC3)ccc2c1 [Example 84, [6-({[1-(4-Chloro-phenyl)-cyclopentanecarbonyl]-amino}-methyl)-naphthalen-2-yloxy]-acetic acid]",,34,,
"CN(Cc1ccc2c(Br)c(OCC(=O)O)ccc2c1)C(=O)c1oc2ccccc2c1CCc1ccccc1 [Example 47, (1-Bromo-6-{[methyl-(3-phenethyl-benzofuran-2-carbonyl)-amino]-methyl}-naphthalen-2-yloxy)-acetic acid]",119 to 122,90,,59
"CN(Cc1ccc2c(Br)c(OC(Cc3ccccc3)C(=O)O)ccc2c1)C(=O)c1ccc(C2CCCCC2)cc1 (centres unmarked) [Example 61, 2-(1-Bromo-6-{[(4cyclohexyl-benzoyl)-methyl-amino]-methyl}-naphthalen-2-yloxy)-3-phenyl-propionic acid]",,75,,24
"CN(Cc1ccc2c(Br)c(OCc3nnn[nH]3)ccc2c1)C(=O)c1oc2ccccc2c1CCc1ccccc1 [Example 45, 3-Phenethyl-benzofuran-2-carboxylic acid [5-bromo-6-(1H-tetrazol-5-ylmethoxy)-naphthalen-2-ylmethyl]-methyl-amide]",56 to 59,17,,
"O=C(O)COc1ccc2cc(NC(=O)c3cc(-c4ccccc4Cl)oc3C(F)(F)F)ccc2c1 [Example 73, (6-{[5-(2-Chloro-phenyl)-2-trifluoromethyl-furan-3-carbonyl]-amino}naphthalen-2-yloxy)-acetic acid]",,65,,23
"CCCCc1c(C(=O)N(C)Cc2ccc3c(Br)c(OCc4nnn[nH]4)ccc3c2)c2ccccc2n1C [Example 36, 2-Butyl-1-methyl-1H-indole-3-carboxylic acid [5-bromo-6-(1H-tetrazol-5-ylmethoxy)-naphthalen-2-ylmethyl]-methyl-amide]",147 to 149,46,,4
"O=C(O)COc1ccc2cc(NC(=O)C3(c4ccc(Cl)cc4)CCC3)ccc2c1 [Example 80, (6-{[1-(4-Chloro-phenyl)-cyclobutanecarbonyl]-amino}-naphthalen-2-yloxy)-acetic acid]",,48,,

# Now from value to compound:
melting point [°C],inhibition at 100 µM [1] [%],IC50 [2] [µM],inhibition at 25 µM [1] [%],Structure (SMILES)
242 to 245,47,,,"CCCCc1oc2ccccc2c1C(=O)Nc1ccc2c(Br)c(OCc3nn[nH]n3)ccc2c1 [Example 5, 2-Butyl-benzofuran-3-carboxylic acid [5-bromo-6-(2H-tetrazol-5-ylmethoxy)-naphthalen-2-yl]-amide]"
207 to 210,,,,"CCCCc1oc2ccccc2c1C(=O)NCc1ccc2cc(OCc3nnn[nH]3)ccc2c1 (as salt: sodium) [Example 8, 2-Butyl-benzofuran-3-carboxylic acid [6-(1H-tetrazol-5-ylmethoxy)-naphthalen-2-ylmethyl]-amide sodium salt]"
284 to 287,,,,"CCCCc1oc2ccccc2c1C(=O)Nc1ccc2c(Br)c(OCC(=O)O)ccc2c1 (as salt: sodium) [Example 6, {1-Bromo-6-[(2-butyl-benzofuran-3-carbonyl)-amino]-naphthalen-2-yloxy}-acetic acid sodium salt]"
> 275,89,,28,"CCCCc1oc2ccccc2c1C(=O)NCc1ccc2cc(OCC(=O)[O-])ccc2c1.[Na+] [Example 9, Sodium; (6-{[(2-butyl-benzofuran-3-carbonyl)-amino]-methyl}-naphthalen-2-yloxy)-acetate]"
75 to 78,39,,,"CCCCc1oc2ccccc2c1C(=O)NCc1ccc2c(-c3ccc(C(C)(C)C)cc3)c(OCc3nnn[nH]3)ccc2c1 [Example 27, 2-Butyl-benzofuran-3-carboxylic acid [5-(4-tert-butyl-phenyl)-6-(1H-tetrazol-5-ylmethoxy)-naphthalen-2-ylmethyl]-amide]"
162 to 166,48,,,"CCCCc1oc2ccccc2c1C(=O)NCc1ccc2c(-c3ccc(C)cc3)c(OCc3nnn[nH]3)ccc2c1 [Example 23, 2-Butyl-benzofuran-3-carboxylic acid [6-(1H-tetrazol-5-ylmethoxy)-5-p-tolyl-naphthalen-2-ylmethyl]-amide]"
260,,,,"CCCCc1oc2ccccc2c1C(=O)NCc1ccc2c(Br)c(OCC(=O)O)ccc2c1 (as salt: sodium) [Example 19, Sodium; (1-bromo-6-{[(2-butyl-benzofuran-3-carbonyl)-amino]-methyl}-naphthalen-2-yloxy)-acetate]"
,29,,,"CCc1oc2ccccc2c1C(=O)NCc1ccc2c(Br)c(OC(Cc3ccccc3)C(=O)O)ccc2c1 (centres unmarked) [Example 58, 2-(1-Bromo-6-{[(2-ethyl-benzofuran-3-carbonyl)-amino]-methyl}-naphthalen-2-yloxy)-3-phenyl-propionic acid]"
147 to 152,,,,"CCCCc1oc2ccccc2c1C(=O)NCc1ccc2c(-c3ccc(OC)cc3)c(OCc3nnn[nH]3)ccc2c1 (as salt: sodium) [Example 25, 2-Butyl-benzofuran-3-carboxylic [5-(4-methoxy phenyl)-6-(1H-tetrazol-5-ylmethoxy)-naphthalen-2-ylmethyl]-amide, sodium salt]"

# From patent US6589970B2, “6-(aryl-amido or aryl-amidomethyl)-naphthalen-2-yloxy-acidic derivatives as inhibitors of plasminogen activator inhibitor type-1 (PAI-1)” (Wyeth, priority 2001, dated 2003)
